Source: PubChem BioAssay (NCI)
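96-well plates; 48 h exposure; 5 concentrations. Endpoints by linear interpolation between flanking doses. Not reached: highest tested concentration assigned. At the GI50, growth is halved. TGI: total growth inhibition.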

Assays:
Test in all cases: NCI anticancer screen, dose series, 48 h
NCI-H23 lung = system: NCI-H23 lung
HS 578T breast = system: HS 578T breast
CCRF-CEM leukemia = system: CCRF-CEM leukemia
MDA-MB-231 breast = system: MDA-MB-231 breast
MCF7 breast = system: MCF7 breast
HT29 colon = system: HT29 colon
OVCAR-4 ovarian = system: OVCAR-4 ovarian
OVCAR-8 ovarian = system: OVCAR-8 ovarian
NCI/ADR-RES ovarian = system: NCI/ADR-RES ovarian
A498 renal = system: A498 renal
HL-60(TB) leukemia = system: HL-60(TB) leukemia
UACC-62 melanoma = system: UACC-62 melanoma
SK-MEL-2 melanoma = system: SK-MEL-2 melanoma
A549 NSCLC = system: A549 NSCLC
RPMI-8226 leukemia = system: RPMI-8226 leukemia
DU-145 prostate = system: DU-145 prostate
SK-MEL-5 melanoma = system: SK-MEL-5 melanoma
ACHN renal = system: ACHN renal
MALME-3M melanoma = system: MALME-3M melanoma
786-0 renal = system: 786-0 renal
MOLT-4 leukemia = system: MOLT-4 leukemia
NCI-H226 lung = system: NCI-H226 lung
SNB-75 CNS = system: SNB-75 CNS
HCT-116 colon = system: HCT-116 colon
UO-31 renal = system: UO-31 renal
SNB-19 CNS = system: SNB-19 CNS
TK-10 renal = system: TK-10 renal
HOP-92 NSCLC = system: HOP-92 NSCLC
UACC-257 melanoma = system: UACC-257 melanoma
CAKI-1 renal = system: CAKI-1 renal
NCI-H460 lung = system: NCI-H460 lung
RXF 393 renal = system: RXF 393 renal
OVCAR-5 ovarian = system: OVCAR-5 ovarian
SN12C renal = system: SN12C renal
SF-268 CNS = system: SF-268 CNS
M14 melanoma = system: M14 melanoma
IGROV1 ovarian = system: IGROV1 ovarian
T-47D breast = system: T-47D breast
HCC-2998 colon = system: HCC-2998 colon
HOP-62 NSCLC = system: HOP-62 NSCLC
COLO 205 colon = system: COLO 205 colon
SF-295 CNS = system: SF-295 CNS
SK-MEL-28 melanoma = system: SK-MEL-28 melanoma
OVCAR-3 ovarian = system: OVCAR-3 ovarian
LOX IMVI melanoma = system: LOX IMVI melanoma
MDA-MB-435 = system: MDA-MB-435
EKVX NSCLC = system: EKVX NSCLC
U251 CNS = system: U251 CNS
SK-OV-3 ovarian = system: SK-OV-3 ovarian
SF-539 CNS = system: SF-539 CNS
NCI-H522 lung = system: NCI-H522 lung
MDA-MB-468 breast = system: MDA-MB-468 breast
BT-549 breast = system: BT-549 breast
HCT-15 colon = system: HCT-15 colon
KM12 colon = system: KM12 colon
K-562 leukemia = system: K-562 leukemia
SW-620 colon = system: SW-620 colon
PC-3 prostate = system: PC-3 prostate

Q: What does the source list for `COC(=O)C[C@](O)(CCCC(C)(C)O)C(=O)O[C@H]1C(OC)=C[C@@]23CCCN2CCc2cc4c(cc2[C@@H]13)OCO4`?
A: GI50 (NCI-H23 lung): 996 nM; TGI (NCI-H23 lung): 3310 nM; TGI (HS 578T breast): 9750 nM; GI50 (CCRF-CEM leukemia): 856 nM; TGI (CCRF-CEM leukemia): 3020 nM; GI50 (MDA-MB-231 breast): 2240 nM; TGI (MDA-MB-231 breast): 12800 nM; GI50 (MCF7 breast): 524 nM; TGI (MCF7 breast): 2110 nM; GI50 (HT29 colon): 953 nM; TGI (HT29 colon): 6450 nM; GI50 (OVCAR-4 ovarian): 1220 nM; TGI (OVCAR-4 ovarian): 10300 nM; GI50 (OVCAR-8 ovarian): 1420 nM; TGI (OVCAR-8 ovarian): 11900 nM; GI50 (NCI/ADR-RES ovarian): > 38300 nM; TGI (NCI/ADR-RES ovarian): > 38300 nM; GI50 (A498 renal): 665 nM; TGI (A498 renal): 3660 nM; GI50 (HL-60(TB) leukemia): 456 nM; TGI (HL-60(TB) leukemia): 1740 nM; GI50 (UACC-62 melanoma): 1410 nM; TGI (UACC-62 melanoma): 10600 nM; GI50 (SK-MEL-2 melanoma): 3230 nM; TGI (SK-MEL-2 melanoma): 12800 nM; GI50 (A549 NSCLC): 999 nM; TGI (A549 NSCLC): 8720 nM; GI50 (RPMI-8226 leukemia): 930 nM; TGI (RPMI-8226 leukemia): 2360 nM; GI50 (DU-145 prostate): 1120 nM; TGI (DU-145 prostate): 13400 nM; GI50 (SK-MEL-5 melanoma): 614 nM; TGI (SK-MEL-5 melanoma): 1470 nM; GI50 (ACHN renal): 1770 nM; TGI (ACHN renal): 16200 nM; GI50 (MALME-3M melanoma): 691 nM; TGI (MALME-3M melanoma): 2110 nM; GI50 (786-0 renal): 1450 nM; TGI (786-0 renal): 9560 nM; GI50 (MOLT-4 leukemia): 255 nM; TGI (MOLT-4 leukemia): 2290 nM; GI50 (NCI-H226 lung): 781 nM; TGI (NCI-H226 lung): 3560 nM; GI50 (SNB-75 CNS): 982 nM; TGI (SNB-75 CNS): 8370 nM; GI50 (HCT-116 colon): 717 nM; TGI (HCT-116 colon): 3010 nM; GI50 (UO-31 renal): 4550 nM; TGI (UO-31 renal): 29800 nM; GI50 (SNB-19 CNS): 757 nM; TGI (SNB-19 CNS): 3060 nM; GI50 (TK-10 renal): 3030 nM; TGI (TK-10 renal): 35700 nM; GI50 (HOP-92 NSCLC): 1150 nM; TGI (HOP-92 NSCLC): 11700 nM; GI50 (UACC-257 melanoma): 1220 nM; TGI (UACC-257 melanoma): 8480 nM; GI50 (CAKI-1 renal): 3000 nM; TGI (CAKI-1 renal): 29700 nM; GI50 (NCI-H460 lung): 210 nM; TGI (NCI-H460 lung): 2620 nM; GI50 (RXF 393 renal): 447 nM; TGI (RXF 393 renal): 1470 nM; GI50 (OVCAR-5 ovarian): 1550 nM; TGI (OVCAR-5 ovarian): 11100 nM; GI50 (SN12C renal): 1610 nM; TGI (SN12C renal): 19600 nM; GI50 (SF-268 CNS): 2900 nM; TGI (SF-268 CNS): 19500 nM; GI50 (M14 melanoma): 744 nM; TGI (M14 melanoma): 1880 nM; GI50 (IGROV1 ovarian): 1320 nM; TGI (IGROV1 ovarian): 11400 nM; GI50 (T-47D breast): 1200 nM; TGI (T-47D breast): 18500 nM; GI50 (HCC-2998 colon): 545 nM; TGI (HCC-2998 colon): 1590 nM; GI50 (HOP-62 NSCLC): 1500 nM; TGI (HOP-62 NSCLC): 16200 nM; GI50 (COLO 205 colon): 1700 nM; TGI (COLO 205 colon): 6870 nM; GI50 (SF-295 CNS): 1340 nM; TGI (SF-295 CNS): 11800 nM; GI50 (SK-MEL-28 melanoma): 992 nM; TGI (SK-MEL-28 melanoma): 4260 nM; GI50 (OVCAR-3 ovarian): 1010 nM; TGI (OVCAR-3 ovarian): 4140 nM; GI50 (LOX IMVI melanoma): 481 nM; TGI (LOX IMVI melanoma): 1560 nM; GI50 (MDA-MB-435): 1250 nM; TGI (MDA-MB-435): 6780 nM; GI50 (EKVX NSCLC): 1670 nM; TGI (EKVX NSCLC): 16800 nM; GI50 (U251 CNS): 1000 nM; TGI (U251 CNS): 4810 nM; GI50 (SK-OV-3 ovarian): 1350 nM; TGI (SK-OV-3 ovarian): 26400 nM; GI50 (SF-539 CNS): 673 nM; TGI (SF-539 CNS): 1780 nM; GI50 (NCI-H522 lung): 858 nM; TGI (NCI-H522 lung): 2320 nM; GI50 (MDA-MB-468 breast): 613 nM; TGI (MDA-MB-468 breast): 2080 nM; GI50 (BT-549 breast): 823 nM; TGI (BT-549 breast): 2380 nM; GI50 (HCT-15 colon): 4650 nM; TGI (HCT-15 colon): 21700 nM; GI50 (KM12 colon): 1280 nM; TGI (KM12 colon): 17500 nM; GI50 (K-562 leukemia): 972 nM; TGI (K-562 leukemia): > 38300 nM; GI50 (SW-620 colon): 1150 nM; TGI (SW-620 colon): > 38300 nM; GI50 (PC-3 prostate): 1140 nM; TGI (PC-3 prostate): 9360 nM
